# Experimental data: US20240342138A1, “MICROTUBULE TARGETING AGENTS” (BPGbio, Inc., priority 2023, published 2024)
# How the values were obtained:
# tubulin = biological target: T1, tubulin (Sus scrofa, UniProt P02550+P02554); assay: In vitro tubulin polymerization assay (OD based, absorbance 340 nm); format: biochemical, Porcine; conditions: 10 μM and 20 nM; FIG. 1; N=3
# T1 construct: purchased Cytoskeleton Inc. BK006P
# Method: The protocol followed for tubulin polymerization is according to the manufacturer's protocol. The following components were diluted as follows: • A vial of lyophilized GTP was diluted in 100 μl of sterile water and made into 10 μl aliquots and stored at −80° C. • Tubulin was diluted to 10 mg/ml in buffers+GTP as recommended, flash frozen in liquid nitrogen and stored at −80° C. • Paclitaxel was diluted to 2 mM in DMSO
# The half area 96-well plate provided by kit manufacturer was allowed to warm up to 37° C. for 30 mins in the Molecular Devices M5 plate reader. The Compound 1 and nocodazole were diluted in DMSO to a concentration of 2 mM, followed by dilution of these working stocks in the General Tubulin Buffer (GTB-provided in the kit) to a 10× the final well concentration and final well volume of 10 μl. Same was done with the 2 mM Paclitaxel stock. Once the plate was warmed up, the compounds were added in duplicates to the wells. […] The plate was placed at 37° C. in the plate reader for 3 minutes. […] The experimental setup was as follows: • Absorbance read: 340 nm • Temperature: 37° C. • Shake: 5 s at medium speed prior to first read. • Read: The absorbance was read every 1 min for 90 minutes (total 91 reads).
# The values were normalized to the first read by designating the first read as ‘0’ subtracting the value of the first read from the following reads. […]
# [1] = tested on: patient-derived organoids (PDOs); assay: Viability of patient-derived organoids of multiple tumor types (CellTiter-Glo, 5 days); format: cell-based, human
# Method: PDOs were treated with Compound 1 or controls (vehicle control—0.1% DMSO, positive control—10% DMSO) for 5 days. Viability was assessed using the CellTiter-Glo® assay. IC50 and maximal (max) inhibition values were extrapolated from the viability curves. Exemplars of models deemed to be highly responsive (>60% max inhibition; A), responsive (40-60% max inhibition; B), and non-responsive (<40% max inhibition; C) to Compound 1 are shown. Summary of all models tested (D); NR (No Regression, ambiguous nonlinear regression curves or R2<0.65) and NA (Not Applicable, ambiguous maximum inhibition). Compiled data of N=4 replicates.
# Potency of Compound 1 was evaluated in a panel of patient-derived organoids (PDOs) representative of multiple tumor types.
# • 1. Cryopreserved samples (200-300 mg or more depending on study design) were prepared as described below. • 2. The collected tumors were dissociated manually (using a tumor mincing process previously developed) or using the Gentle MACS Dissociator and human Tumor Dissociation Kit (Miltenyi). After preparation, tumor fragments were cultured in DMEM+10% FBS+1× antibiotic/antimycotic (“anti-anti”) plus 1:500 Primocin antimicrobial agent for up to 7 days before filtering out large fragments (using a 500 μm filter followed by 200 μm filters). • 3. Flow-through was cultured in: Cell-Tak coated low volume flat-bottom 384-well assay plates. • 4. 10× concentrations of test agent (or DMSO as vehicle) was added to media in volumes that will vary depending on culturing conditions. • 5. Each group had quadruplicate wells, including 0.1% DMSO (final as vehicle) and 10% DMSO as positive control. • 6. PBS was plated in the perimeter wells to avoid edge-effect artifacts. • 7. Cells were treated for 5 days and viability read via Cell Titer Glo. Viability was quantitatively assessed via Cell Titer Glo at Day 0 (baseline), Day 6 (baseline), and Day 6 (compound treatment-full dose response). […]
# CTG-1520 PDX tumors = assay: CTG-1520 PDX tumor growth in nude mice; format: in vivo
# Method: FIG. 10A-10C show potency of Compound 1 in a patient-derived organoid model of taxane resistance. A) Overview of study design. B) CTG-1520 was implanted subcutaneously in nude mice and tumors were allowed to grow to a volume of 210 mm^3 followed by randomization of animals into three (3) groups (vehicle control, 75 mg/kg, 150 mg/kg Compound 1) with 12 animals per group. A Compound 1 solid dispersion was prepared prior to each dosing and administered by oral gavage two times a day (BID). Mean tumor volume of each group over time and the growth of tumor in each individual animal was graphed. For each individual animal of vehicle group tumor growth inhibition (TGI) % was calculated based on the tumor growth inhibition of individual tumor at each given day of the study compared to the average of the group for that given day of the study. P-values were calculated using two-tailed distribution and two-sample equal variance (homoscedastic) for each group treated with Compound 1 for each given day of the study in reference to vehicle control. ns p>0.05; *p≤0.05; **p≤0.01. C) Body weight of each individual animal was measured on days 0, 3, 6, 10, 13, and 17 and graphed using Graphpad Prism.
# In a next step, the ability of Compound 1 to inhibit the growth of CTG-1520 PDX in nude mice was assessed. CTG-1520 was implanted subcutaneously in nude mice and tumors were allowed to grow to a volume of 210 mm^3 followed by randomization of animals into three (3) groups (vehicle control; 75 mg/kg, and 150 mg/kg Compound 1) with 12 animals per group (see FIG. 10A). A Compound 1 solid dispersion was administered by oral gavage two times a day (BID). All animals, except one (1) from the vehicle control group, survived through the study (17 days). One (1) animal from the vehicle control group reached the endpoint of 2000 mm^3 prior to day 17 and was eliminated from all calculations.
# T1 sequence (P02550 whole entry): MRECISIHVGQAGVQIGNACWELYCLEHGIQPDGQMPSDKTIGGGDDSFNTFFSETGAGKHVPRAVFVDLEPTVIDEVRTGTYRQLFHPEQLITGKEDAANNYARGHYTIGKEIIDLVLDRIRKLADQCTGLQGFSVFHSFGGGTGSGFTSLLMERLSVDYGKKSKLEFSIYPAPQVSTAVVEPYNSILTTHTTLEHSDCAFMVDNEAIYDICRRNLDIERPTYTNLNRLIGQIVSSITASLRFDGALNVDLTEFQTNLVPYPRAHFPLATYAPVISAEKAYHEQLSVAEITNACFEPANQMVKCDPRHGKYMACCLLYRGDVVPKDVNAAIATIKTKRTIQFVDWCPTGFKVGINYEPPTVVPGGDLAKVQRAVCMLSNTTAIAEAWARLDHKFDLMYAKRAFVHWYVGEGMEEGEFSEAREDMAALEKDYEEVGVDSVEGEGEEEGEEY
# T1 sequence (P02554 whole entry): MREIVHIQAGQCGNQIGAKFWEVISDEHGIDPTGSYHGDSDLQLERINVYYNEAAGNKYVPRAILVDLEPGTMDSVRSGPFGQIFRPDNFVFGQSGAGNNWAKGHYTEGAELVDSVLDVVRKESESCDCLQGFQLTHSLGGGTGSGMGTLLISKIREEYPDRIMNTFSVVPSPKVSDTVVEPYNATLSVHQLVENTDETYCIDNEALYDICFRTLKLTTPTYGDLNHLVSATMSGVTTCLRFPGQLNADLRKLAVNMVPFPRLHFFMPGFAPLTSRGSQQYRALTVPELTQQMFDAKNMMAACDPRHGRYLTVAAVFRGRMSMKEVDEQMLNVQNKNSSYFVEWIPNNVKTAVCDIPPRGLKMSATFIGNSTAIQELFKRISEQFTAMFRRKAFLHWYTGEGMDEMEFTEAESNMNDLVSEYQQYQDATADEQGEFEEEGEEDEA
smiles,measurement,setting,value
"COc1ccccc1-c1nc(CNC(=O)c2ccccc2OC(F)F)n[nH]1 [Compound 1, 2-(difluoromethoxy)-N-[[5-(2-methoxyphenyl)-1H-1,2,4-triazol-3-yl]methyl]benzamide]","Microtubule polymerization (absorbance at 340 nm, Vmax)",tubulin,inhibits microtubule polymerization
same,Response of PDO models (max inhibition class),"[1]; Glioblastoma multiforme, SCLC, ovarian, endometrial, breast, prostate cancer, renal cell carcinoma",responsive (responsive (40-60% max inhibition))
same,Response of PDO models (max inhibition class),[1]; colorectal cancer (FIG. 7C),non-responsive (non-responsive (<40% max inhibition))
same,Response of PDO models (max inhibition class),"[1]; endometrial cancer, SCLC, sarcoma, breast cancer, NSCLC, ovarian cancer",highly responsive (highly responsive (>60% max inhibition))
same,Tumor volume relative to vehicle control,"CTG-1520 PDX tumors; 75 mg/kg BID oral gavage, 17 days","reduced tumor volume relative to the vehicle control, but to a lesser extent than the 150 mg/kg dose"
same,Tumor growth inhibition,"CTG-1520 PDX tumors; 150 mg/kg BID oral gavage, 17 days",significant tumor growth inhibition
same,Body weight,"CTG-1520 PDX tumors; 75 and 150 mg/kg BID, FIG. 10C",No body weight loss
